Measurements published in patent US6525001B1, “Substituted pyrimidine and pyridine herbicides” (Mid-American Commercialization Corporation, priority 1997, dated 2003).

Key:
Assay type in all cases: in vivo
[1] = tested on: barnyardgrass (Echinochloa crus-galli); assay: Test A pre-/postemergence; set-up: key: 0 is no effect; 10 is complete control; conditions: 0 to 10 scale
[2] = tested on: crabgrass (Digitaria spp.); assay: Test A pre-/postemergence; set-up: key: 0 is no effect; 10 is complete control; conditions: 0 to 10 scale
[3] = tested on: morningglory (Ipomoea spp.); assay: Test A pre-/postemergence; set-up: key: 0 is no effect; 10 is complete control; conditions: 0 to 10 scale
[4] = tested on: velvetleaf (Abutilon theophrasti); assay: Test A pre-/postemergence; set-up: key: 0 is no effect; 10 is complete control; conditions: 0 to 10 scale
[5] = tested on: barnyardgrass (Echinochloa crus-galli); assay: Test C; set-up: key: 0 was no effect; 100 was complete control; conditions: PREEMERGENCE
[6] = tested on: common ragweed (Ambrosia elatior); assay: Test C; set-up: key: 0 was no effect; 100 was complete control; conditions: PREEMERGENCE
corn (Zea mays) = assay: Test C; conditions: PREEMERGENCE
[7] = tested on: cotton (Gossypium hirsutum); assay: Test C; set-up: key: 0 was no effect; 100 was complete control; conditions: PREEMERGENCE
[8] = tested on: fall panicum (Panicum dichotomiflorum); assay: Test C; conditions: PREEMERGENCE
[9] = tested on: field bindweed (Convolvulus arvensis); assay: Test C; conditions: PREEMERGENCE
[10] = tested on: giant foxtail (Setaria faberii); assay: Test C; set-up: key: 0 was no effect; 100 was complete control; conditions: PREEMERGENCE
[11] = tested on: lambsquarters (Chenopodium album); assay: Test C; set-up: key: 0 was no effect; 100 was complete control; conditions: PREEMERGENCE
[12] = tested on: large crabgrass (Digitaria sanguinalis); assay: Test C; set-up: key: 0 was no effect; 100 was complete control; conditions: PREEMERGENCE
[13] = tested on: surinam grass (Brachiaria decumbens); assay: Test C; conditions: PREEMERGENCE
[14] = tested on: velvetleaf (Abutilon theophrasti); assay: Test C; set-up: key: 0 was no effect; 100 was complete control; conditions: PREEMERGENCE
[15] = tested on: common groundsel (Senecio vulgaris); assay: Test E pre-/postemergence/post directed
Method in brief: (§1)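 Injury scored visually on a 0–100 scale (100 = complete control) 13 to 21 days after treatment. Test chemicals, formulated with surfactant in non-phytotoxic solvent, were applied to soil within one day of planting, to plants at two to four leaves (three to twenty cm), or as directed spray at plant base.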

[16] = tested on: itchgrass (Rottboellia exaltata); assay: Test E pre-/postemergence/post directed
Method in brief: as §1

[17] = tested on: pitted morningglory (Ipomoea lacunosa); assay: Test E pre-/postemergence/post directed
Method in brief: as §1

[18] = tested on: surinam grass (Brachiaria decumbens); assay: Test E pre-/postemergence/post directed
Method in brief: as §1

[19] = PRE SOIL DRENCH, Rate 2000 g/ha
[20] = postemergence SPRAYED TO RUNOFF, Rate 1000 g/ha

## Cc1cnc(-c2ccc(C(F)(F)F)cc2)nc1Cc1cccc(C(F)(F)F)c1 [Example 1, 5-methyl-2-[4-(trifluoromethyl)phenyl]-4-[[3-(trifluoromethyl)phenyl]methyl]pyrimidine]
[1]; [19]
  Plant response rating, Barnyardgrass: 10
[1]; [20]
  Plant response rating, Barnyardgrass: 9
[2]; [19]
  Plant response rating, Crabgrass: 10
[2]; [20]
  Plant response rating, Crabgrass: 9
[3]; [19]
  Plant response rating, Morningglory: 8
[3]; [20]
  Plant response rating, Morningglory: 9
[4]; [19]
  Plant response rating, Velvetleaf: 9
[4]; [20]
  Plant response rating, Velvetleaf: 9
[5]; Rate 35 g/ha
  Plant response rating, Barnyardgrass: 20
[5]; Rate 70 g/ha
  Plant response rating, Barnyardgrass: 75
[5]; Rate 140 g/ha
  Plant response rating, Barnyardgrass: 100
[6]; Rate 35 g/ha
  Plant response rating, Common ragweed: 80
[6]; Rate 70 g/ha
  Plant response rating, Common ragweed: 100
[6]; Rate 140 g/ha
  Plant response rating, Common ragweed: 100
Corn (Zea mays); Rate 35 g/ha
  Plant response rating, Corn: 5
Corn (Zea mays); Rate 70 g/ha
  Plant response rating, Corn: 10
Corn (Zea mays); Rate 140 g/ha
  Plant response rating, Corn: 10
[7]; Rate 35 g/ha
  Plant response rating, Cotton: 30
[7]; Rate 70 g/ha
  Plant response rating, Cotton: 60
[7]; Rate 140 g/ha
  Plant response rating, Cotton: 100
[8]; Rate 35 g/ha
  Plant response rating, Fall panicum: 90
[8]; Rate 70 g/ha
  Plant response rating, Fall panicum: 90
[8]; Rate 140 g/ha
  Plant response rating, Fall panicum: 95
[9]; Rate 35 g/ha
  Plant response rating, Field bindweed: 65
[9]; Rate 70 g/ha
  Plant response rating, Field bindweed: 50
[9]; Rate 140 g/ha
  Plant response rating, Field bindweed: 50
[10]; Rate 35 g/ha
  Plant response rating, Giant foxtail: 100
[10]; Rate 70 g/ha
  Plant response rating, Giant foxtail: 100
[10]; Rate 140 g/ha
  Plant response rating, Giant foxtail: 100
[11]; Rate 35 g/ha
  Plant response rating, Lambsquarters: 100
[11]; Rate 70 g/ha
  Plant response rating, Lambsquarters: 100
[11]; Rate 140 g/ha
  Plant response rating, Lambsquarters: 100
[12]; Rate 35 g/ha
  Plant response rating, Large crabgrass: 100
[12]; Rate 70 g/ha
  Plant response rating, Large crabgrass: 100
[12]; Rate 140 g/ha
  Plant response rating, Large crabgrass: 100
[13]; Rate 35 g/ha
  Plant response rating, Surinam grass: 50
[13]; Rate 70 g/ha
  Plant response rating, Surinam grass: 90
[13]; Rate 140 g/ha
  Plant response rating, Surinam grass: 95
[14]; Rate 35 g/ha
  Plant response rating, Velvetleaf: 20
[14]; Rate 70 g/ha
  Plant response rating, Velvetleaf: 75
[14]; Rate 140 g/ha
  Plant response rating, Velvetleaf: 100
[15]; POSTEMERGENCE, Rate 250 g/ha
  Plant response rating, Com. groundsel: 75
[15]; PREEMERGENCE, Rate 32 g/ha
  Plant response rating, Com. groundsel: 98
[16]; POSTEMERGENCE, Rate 250 g/ha
  Plant response rating, Itchgrass: 85
[16]; PREEMERGENCE, Rate 32 g/ha
  Plant response rating, Itchgrass: 20
[16]; PREEMERGENCE, Rate 64 g/ha
  Plant response rating, Itchgrass: 20
[16]; PREEMERGENCE, Rate 125 g/ha
  Plant response rating, Itchgrass: 50
[16]; PREEMERGENCE, Rate 250 g/ha
  Plant response rating, Itchgrass: 95
[17]; POSTEMERGENCE, Rate 250 g/ha
  Plant response rating, P. morninglory: 80
[17]; PREEMERGENCE, Rate 32 g/ha
  Plant response rating, P. morninglory: 70
[17]; PREEMERGENCE, Rate 64 g/ha
  Plant response rating, P. morninglory: 80
[18]; POSTEMERGENCE, Rate 250 g/ha
  Plant response rating, Surinam grass: 30
[18]; PREEMERGENCE, Rate 32 g/ha
  Plant response rating, Surinam grass: 65
[18]; PREEMERGENCE, Rate 64 g/ha
  Plant response rating, Surinam grass: 35
[18]; PREEMERGENCE, Rate 125 g/ha
  Plant response rating, Surinam grass: 98
